Measurements reported in US12286437B2, “Cardiac sarcomere inhibitors” (Cytokinetics, Inc., priority 2021, dated 2025).
Where two headings read alike, the source gives them in different places.

Tests used:
[1] = Monkey cassette dosing pharmacokinetics; assay type: in vivo; conditions: IV; for clearance / Vd: male, plasma; for Vd: read-out: Vss
CYP2C9 = target: T1, CYP2C9 (Homo sapiens, UniProt P11712); assay: Time-dependent inhibition of CYP2C9 in human liver microsomes; assay type: in vitro ADME; conditions: for (% Activity NADPH T0)/(% Activity NADPH T30): fold change; for activity at 30 min, 25 µM / activity at 0 min, 25 µM / activity at 30 min, 50 µM / activity at 0 min, 50 µM: pooled human liver microsomes, human liver microsomes; for activity at 30 min, 25 µM / activity at 30 min, 50 µM: after 30 minutes incubation, read-out: % Activity NADPH T30; for activity at 0 min, 25 µM / activity at 0 min, 50 µM: time zero, read-out: % Activity NADPH T0
T1 construct: Pooled human microsomes and selective CYP probe substrates were used; from tissue; host or cells: pooled human liver microsomes
T1 sequence (P11712 whole entry): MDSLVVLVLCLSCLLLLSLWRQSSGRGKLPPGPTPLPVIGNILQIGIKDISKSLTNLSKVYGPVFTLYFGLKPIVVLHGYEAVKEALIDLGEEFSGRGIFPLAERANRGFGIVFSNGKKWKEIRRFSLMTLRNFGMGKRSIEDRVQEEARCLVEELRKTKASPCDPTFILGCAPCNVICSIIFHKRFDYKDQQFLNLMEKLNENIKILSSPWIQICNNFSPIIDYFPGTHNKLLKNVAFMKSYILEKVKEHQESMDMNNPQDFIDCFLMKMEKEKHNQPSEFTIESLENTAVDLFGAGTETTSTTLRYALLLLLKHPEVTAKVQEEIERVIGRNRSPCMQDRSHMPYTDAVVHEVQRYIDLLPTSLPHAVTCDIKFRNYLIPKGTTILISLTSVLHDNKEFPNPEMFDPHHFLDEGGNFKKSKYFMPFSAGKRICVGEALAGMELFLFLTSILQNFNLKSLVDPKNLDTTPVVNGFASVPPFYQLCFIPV
Description: (§1) An assessment of the time-dependent Inhibitory Potential of the test compounds against Principal Human Cytochrome P450 Isozymes using Human Liver Microsomes was also carried out using standard methods (Grimm et al, Drug Metab. Dispos., July; 37(7):1355-70. doi: 10.1124/dmd.109.026716, 2009). Pooled human microsomes and selective CYP probe substrates were used for in vitro assessment of test compounds at 25 and 50 μM as time-dependent inhibitors of […] human hepatic cytochrome P450 isozymes (CYP1A2, 2B6, 2C9, 2C19, 2D6, and 3A4). LC-MS/MS was used to quantify metabolite formation. The inhibition of each P450 enzyme in human liver microsomes was measured as the percentage decrease in the activity of marker metabolite formation as measured by LC-MS/MS compared to non-inhibited controls (=100% activity) at time zero and after 30 minutes incubation. The occurrence of any time dependent inhibition was then expressed as the fold change in enzyme activity at time zero relative to the activity after 30 minutes incubation.

[2] = system: bovine cardiac myofibrils; assay: Myofibril assay (ATPase activity of skinned bovine cardiac myofibrils, PK/LDH-coupled); assay type: biochemical; conditions: inhibition of steady-state ATPase of bovine cardiac myofibrils; CaCl2 for 50% or 75% activation
Procedure, shortened: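 Steady-state ATPase of detergent-skinned bovine left-ventricular myofibrils (1 mg/mL), PK/LDH-coupled NADH read at 340 nm, in PIPES/MgCl2 buffer pH 6.8 with 50 μM ATP, 0.6 mM EGTA and CaCl2 set for 50% or 75% activation. Inhibition of activity measured.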

CYP2C19 = target: T2, CYP2C19 (Homo sapiens, UniProt P33261); assay: Time-dependent inhibition of CYP2C19 in human liver microsomes; assay type: in vitro ADME; conditions: for (% Activity NADPH T0)/(% Activity NADPH T30): fold change; for activity at 30 min, 25 µM / activity at 0 min, 25 µM / activity at 30 min, 50 µM / activity at 0 min, 50 µM: pooled human liver microsomes, human liver microsomes; for activity at 30 min, 25 µM / activity at 30 min, 50 µM: after 30 minutes incubation, read-out: % Activity NADPH T30; for activity at 0 min, 25 µM / activity at 0 min, 50 µM: time zero, read-out: % Activity NADPH T0
T2 construct: Pooled human microsomes and selective CYP probe substrates were used; from tissue; host or cells: pooled human liver microsomes
T2 sequence (P33261 whole entry): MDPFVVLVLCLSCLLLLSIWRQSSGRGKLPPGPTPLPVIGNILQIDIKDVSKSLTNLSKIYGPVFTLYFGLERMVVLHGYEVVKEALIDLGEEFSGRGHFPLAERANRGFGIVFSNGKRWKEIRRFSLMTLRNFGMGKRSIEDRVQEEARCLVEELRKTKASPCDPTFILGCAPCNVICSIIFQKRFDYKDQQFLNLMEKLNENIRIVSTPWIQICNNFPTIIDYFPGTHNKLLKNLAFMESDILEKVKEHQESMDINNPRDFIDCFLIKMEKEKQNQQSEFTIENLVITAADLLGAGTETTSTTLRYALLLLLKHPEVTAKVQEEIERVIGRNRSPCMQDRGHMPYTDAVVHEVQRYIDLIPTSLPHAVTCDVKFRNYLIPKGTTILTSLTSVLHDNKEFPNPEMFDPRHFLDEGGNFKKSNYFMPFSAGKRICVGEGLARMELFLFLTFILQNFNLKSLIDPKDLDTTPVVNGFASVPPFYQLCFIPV
Description: as §1

CYP2B6 = target: T3, CYP2B6 (Homo sapiens, UniProt P20813); assay: Time-dependent inhibition of CYP2B6 in human liver microsomes; assay type: in vitro ADME; conditions: for (% Activity NADPH T0)/(% Activity NADPH T30): fold change; for activity at 30 min, 25 µM / activity at 0 min, 25 µM / activity at 30 min, 50 µM / activity at 0 min, 50 µM: pooled human liver microsomes, human liver microsomes; for activity at 30 min, 25 µM / activity at 30 min, 50 µM: after 30 minutes incubation, read-out: % Activity NADPH T30; for activity at 0 min, 25 µM / activity at 0 min, 50 µM: time zero, read-out: % Activity NADPH T0
T3 construct: Pooled human microsomes and selective CYP probe substrates were used; from tissue; host or cells: pooled human liver microsomes
T3 sequence (P20813 1-491): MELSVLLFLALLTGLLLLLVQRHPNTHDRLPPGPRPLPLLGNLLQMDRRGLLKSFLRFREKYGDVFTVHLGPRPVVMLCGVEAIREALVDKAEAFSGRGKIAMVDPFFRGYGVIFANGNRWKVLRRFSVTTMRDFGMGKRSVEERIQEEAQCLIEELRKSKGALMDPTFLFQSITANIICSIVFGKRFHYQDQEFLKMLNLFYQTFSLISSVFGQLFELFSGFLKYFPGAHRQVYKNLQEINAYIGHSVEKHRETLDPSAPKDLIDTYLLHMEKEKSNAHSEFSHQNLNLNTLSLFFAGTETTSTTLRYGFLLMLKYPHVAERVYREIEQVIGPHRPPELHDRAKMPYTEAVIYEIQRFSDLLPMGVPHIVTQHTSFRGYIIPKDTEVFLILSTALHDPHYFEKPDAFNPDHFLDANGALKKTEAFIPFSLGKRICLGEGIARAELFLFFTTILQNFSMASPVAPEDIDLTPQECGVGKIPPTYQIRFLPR
Description: as §1

CYP3A4 = target: T4, CYP3A4 (Homo sapiens, UniProt P08684); assay: Time-dependent inhibition of CYP3A4 in human liver microsomes (testosterone and midazolam probes); assay type: in vitro ADME; conditions: for (% Activity NADPH T0)/(% Activity NADPH T30): fold change; for activity at 30 min, 25 µM / activity at 30 min, 50 µM: human, after 30 minutes incubation, read-out: % Activity NADPH T30; for activity at 30 min, 25 µM / activity at 30 min, 50 µM / activity at 0 min, 25 µM / activity at 0 min, 50 µM: pooled human liver microsomes; for activity at 0 min, 25 µM / activity at 0 min, 50 µM: human liver microsomes, time zero, read-out: % Activity NADPH T0
T4 construct: Pooled human microsomes and selective CYP probe substrates were used; from tissue; host or cells: pooled human liver microsomes
T4 sequence (P08684 whole entry): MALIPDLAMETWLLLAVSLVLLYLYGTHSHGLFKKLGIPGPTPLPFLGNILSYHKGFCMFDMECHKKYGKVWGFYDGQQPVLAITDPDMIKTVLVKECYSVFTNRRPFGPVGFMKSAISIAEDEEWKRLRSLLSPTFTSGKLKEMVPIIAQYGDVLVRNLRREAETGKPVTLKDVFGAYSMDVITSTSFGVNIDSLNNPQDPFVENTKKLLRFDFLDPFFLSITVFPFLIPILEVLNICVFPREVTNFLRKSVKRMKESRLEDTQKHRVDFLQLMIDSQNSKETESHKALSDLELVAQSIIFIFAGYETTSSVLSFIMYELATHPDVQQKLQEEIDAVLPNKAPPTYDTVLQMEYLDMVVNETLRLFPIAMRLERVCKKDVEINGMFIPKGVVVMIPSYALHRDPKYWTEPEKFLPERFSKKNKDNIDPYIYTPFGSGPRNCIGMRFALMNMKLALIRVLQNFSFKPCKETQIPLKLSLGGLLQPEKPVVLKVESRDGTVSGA
Description: as §1

[3] = CYP3A4-M (midazolam probe substrate), 25 μM
[4] = CYP3A4-M (midazolam probe substrate), 50 μM
[5] = CYP3A4-T (testosterone probe substrate), 25 μM
[6] = CYP3A4-T (testosterone probe substrate), 50 μM

Compound	t l/2 [1] [h]	clearance [1] [mL/min/kg]	Vd [1] [L/kg]	(% Activity NADPH T0)/(% Activity NADPH T30) (CYP2C9; CYP2C9, 25 μM)	(% Activity NADPH T0)/(% Activity NADPH T30) (CYP2C9; CYP2C9, 50 μM)	activity at 30 min, 25 µM (CYP2C9; CYP2C9, 25 μM) [%]	activity at 0 min, 25 µM (CYP2C9; CYP2C9, 25 μM) [%]	activity at 30 min, 50 µM (CYP2C9; CYP2C9, 50 μM) [%]	activity at 0 min, 50 µM (CYP2C9; CYP2C9, 50 μM) [%]	CDMF IC15 [2] [µM]	(% Activity NADPH T0)/(% Activity NADPH T30) (CYP2C19; CYP2C19, 25 μM)	(% Activity NADPH T0)/(% Activity NADPH T30) (CYP2C19; CYP2C19, 50 μM)	activity at 30 min, 25 µM (CYP2C19; CYP2C19, 25 μM) [%]	activity at 0 min, 25 µM (CYP2C19; CYP2C19, 25 μM) [%]	(% Activity NADPH T0)/(% Activity NADPH T30) (CYP2B6; CYP2B6, 25 μM)	(% Activity NADPH T0)/(% Activity NADPH T30) (CYP2B6; CYP2B6, 50 μM)	(% Activity NADPH T0)/(% Activity NADPH T30) (CYP3A4; [3])	(% Activity NADPH T0)/(% Activity NADPH T30) (CYP3A4; [4])	(% Activity NADPH T0)/(% Activity NADPH T30) (CYP3A4; [5])	(% Activity NADPH T0)/(% Activity NADPH T30) (CYP3A4; [6])	also measured
CC(C)N1CC(=O)N(Cc2ccc(Cl)c(F)c2)C2(CN(c3cccnn3)C2)C1=O [Compound 8, 5-(4-chloro-3-fluorobenzyl)-8-isopropyl-2-(pyridazin-3-yl)-2,5,8-triazaspiro[3.5]nonane-6,9-dione]	3.72	20.2	4.76	1.0	1.0	107	104	109	112	1.3	0.9	1.0	99	94	0.9	0.9	1.0	1.0	1.0	1.0	activity at 30 min, 50 µM (CYP2C19; CYP2C19, 50 μM): 92%; activity at 0 min, 50 µM (CYP2C19; CYP2C19, 50 μM): 93%; activity at 30 min, 25 µM (CYP2B6; CYP2B6, 25 μM): 97%; activity at 0 min, 25 µM (CYP2B6; CYP2B6, 25 μM): 83%; activity at 30 min, 50 µM (CYP2B6; CYP2B6, 50 μM): 100%; activity at 0 min, 50 µM (CYP2B6; CYP2B6, 50 μM): 88%; activity at 30 min, 25 µM (CYP3A4; [3]): 100%; activity at 30 min, 50 µM (CYP3A4; [4]): 100%; activity at 30 min, 25 µM (CYP3A4; [5]): 100%; activity at 30 min, 50 µM (CYP3A4; [6]): 100%; activity at 0 min, 25 µM (CYP3A4; [3]): 100%; activity at 0 min, 50 µM (CYP3A4; [4]): 100%; activity at 0 min, 25 µM (CYP3A4; [5]): 100%; activity at 0 min, 50 µM (CYP3A4; [6]): 100%
C[C@H]1CC[C@H](N2CC(=O)N(Cc3ccc(F)c(F)c3)C3(CN(C=O)C3)C2=O)CC1 [Compound 4, 5-(3,4-difluorobenzyl)-8-((1r,4r)-4-methylcyclohexyl)-6,9-dioxo-2,5,8-triazaspiro[3.5]nonane-2-carbaldehyde]	8.69	–	–	1.0	0.9	–	–	–	–	1.5	1.4	1.1	–	–	1.1	1.0	0.8	0.7	0.9	0.8	(% Activity NADPH T0)/(% Activity NADPH T30) (CYP2C19; CYP2C19, 50 μM, listed as compound 4): no change in activity
Cc1cc(CN2C(=O)CN([C@H]3CC[C@H](C)CC3)C(=O)C23CN(C(N)=O)C3)ccc1F [Compound 6, 5-(4-fluoro-3-methylbenzyl)-8-((1r,4r)-4-methylcyclohexyl)-6,9-dioxo-2,5,8-triazaspiro[3.5]nonane-2-carboxamide]	8.07	12.3	6.29	1.2	1.0	41	48	33	34	1.4	1.2	1.1	89	105	1.1	1.1	1.0	0.8	1.3	1.4	activity at 30 min, 50 µM (CYP2C19; CYP2C19, 50 μM): 92%; activity at 0 min, 50 µM (CYP2C19; CYP2C19, 50 μM): 100%; activity at 30 min, 25 µM (CYP2B6; CYP2B6, 25 μM): 83%; activity at 0 min, 25 µM (CYP2B6; CYP2B6, 25 μM): 95%; activity at 30 min, 50 µM (CYP2B6; CYP2B6, 50 μM): 77%; activity at 0 min, 50 µM (CYP2B6; CYP2B6, 50 μM): 87%; activity at 30 min, 25 µM (CYP3A4; [3]): 89%; activity at 30 min, 50 µM (CYP3A4; [4]): 86%; activity at 30 min, 25 µM (CYP3A4; [5]): 76%; activity at 30 min, 50 µM (CYP3A4; [6]): 63%; activity at 0 min, 25 µM (CYP3A4; [3]): 89%; activity at 0 min, 50 µM (CYP3A4; [4]): 72%; activity at 0 min, 25 µM (CYP3A4; [5]): 95%; activity at 0 min, 50 µM (CYP3A4; [6]): 89%
C[C@H]1CC[C@H](N2CC(=O)N(Cc3ccc(F)c(F)c3)C3(CN(C(N)=O)C3)C2=O)CC1 [Compound 5, 5-(3,4-difluorobenzyl)-8-((1r,4r)-4-methylcyclohexyl)-6,9-dioxo-2,5,8-triazaspiro[3.5]nonane-2-carboxamide]	8.2	19	10.2	0.8	1.0	79	62	64	62	1.3	1.2	1.3	83	101	1.0	1.1	1.1	1.9	1.1	1.4	activity at 30 min, 50 µM (CYP2C19; CYP2C19, 50 μM): 77%; activity at 0 min, 50 µM (CYP2C19; CYP2C19, 50 μM): 102%; activity at 30 min, 25 µM (CYP2B6; CYP2B6, 25 μM): 78%; activity at 0 min, 25 µM (CYP2B6; CYP2B6, 25 μM): 79%; activity at 30 min, 50 µM (CYP2B6; CYP2B6, 50 μM): 76%; activity at 0 min, 50 µM (CYP2B6; CYP2B6, 50 μM): 83%; activity at 30 min, 25 µM (CYP3A4; [3]): 69%; activity at 30 min, 50 µM (CYP3A4; [4]): 35%; activity at 30 min, 25 µM (CYP3A4; [5]): 87%; activity at 30 min, 50 µM (CYP3A4; [6]): 68%; activity at 0 min, 25 µM (CYP3A4; [3]): 75%; activity at 0 min, 50 µM (CYP3A4; [4]): 67%; activity at 0 min, 25 µM (CYP3A4; [5]): 100%; activity at 0 min, 50 µM (CYP3A4; [6]): 98%
